Earlier results, collected in patent US20260083754A1, “CORTICOSTEROID CONTAINING ORALLY DISINTEGRATING TABLET COMPOSITIONS FOR EOSINOPHILIC ESOPHAGITIS” (Ellodi Pharmaceuticals, L.P., priority 2013, published 2026).

Columns and labels:
[1] = system: adolescent and adult patients with active EoE; settings: 15-day course, 1 mg twice daily

## CCC(=O)O[C@]1(C(=O)SCF)[C@H](C)C[C@H]2[C@@H]3C[C@H](F)C4=CC(=O)C=C[C@]4(C)[C@@]3(F)[C@@H](O)C[C@@]21C [FP, fluticasone propionate]
EoE patients; FP-treated patients, placebo 9%, P=0.047
  patients who achieved histologic remission: 50%
EoE patients; more pronounced effect in non-allergic individuals
  esophageal eosinophil levels: decreased

## CCCC1O[C@@H]2C[C@H]3[C@@H]4CCC5=CC(=O)C=C[C@]5(C)[C@H]4[C@@H](O)C[C@]3(C)[C@]2(C(=O)CO)O1 (stereo partly drawn) [budesonide]
[1]
  tolerability: well tolerated
